Literature values in patent US5627202A, “Inhibitors of farnesyl-protein transferase” (Merck & Co., Inc., priority 1996, dated 1997).

Test system: farnesyl-protein transferase
Conditions: via HMG-CoA reductase inhibition

CC[C@H](C)C(=O)O[C@H]1C[C@@H](C)C=C2C=C[C@H](C)[C@H](CC[C@@H]3C[C@@H](O)CC(=O)O3)[C@H]21 [lovastatin]
Indirect inhibition of farnesyl-protein transferase in vivo: Indirect inhibition of farnesyl-protein transferase in vivo

CC[C@H](C)C(=O)O[C@H]1CCC=C2C=C[C@H](C)[C@H](CC[C@@H]3C[C@@H](O)CC(=O)O3)[C@H]21 [compactin]
Indirect inhibition of farnesyl-protein transferase in vivo: Indirect inhibition of farnesyl-protein transferase in vivo
